Test results reported in patent US20140343085A1, “USE OF ARYL DERIVATIVES FOR CONTROLLING ECTOPARASITES” (Novartis AG, priority 2011, published 2014).

Tests used:
[1] = Blood concentration of active enantiomer in dogs, fed vs fasted (HPLC-MSMS, enantioselective column); assay type: in vivo; conditions: 50 mg/kg
Method: To 12 dogs of mixed breed, the racemic compound 5-[5-(3,4,5-trichloro-phenyl)-5-trifluoromethyl-4,5-dihydro-isoxazol-3-yl]-3-methyl-thiophene-2-carboxylic acid [(2,2,2-trifluoro-ethylcarbamoyl)-methyl]-amide was administered in form of a solution at a dose of 50 mg/kg of animal, and the blood concentration of said aryl isoxazoline compound within the dogs was then monitored up to 6 days following the administration.
4 dogs (Group 1) received a full daily ration of pelleted dry food 15 to 30 minutes before the administration of the aryl isoxazoline compound; The Group 2 dogs received an identical ration of pelleted dry feed 30 minutes after the administration of the active ingredient. To the remaining 4 dogs of Group 3, the aryl isoxazoline compound was administered in fasted condition, and they received the identical ration of pelleted dry food only 5 hours following the uptake of the antiparasiticide.
(§1) Analysis of the blood concentration was performed as follows. A blood sample from the animal was subjected to a precipitation step with organic solvent and subsequently cleaned up on a […] solid phase extraction cartridge. The eluate was evaporated to dryness and reconstituted in mobile phase and analyzed on a HPLC-MSMS using an enantioselective column (amylose-based, brand name “Chiralpak”).

[2] = Blood concentration of active enantiomer in cats, fed vs fasted (HPLC-MSMS, enantioselective column); assay type: in vivo; conditions: 45 mg, fasted Group 2
Method: as §1
To 4 cats, each 45 mg of the racemic compound 5-[5-(3,4,5-trichloro-phenyl)-5-trifluoromethyl-4,5-dihydro-isoxazol-3-yl]-3-methyl-thiophene-2-carboxylic acid [(2,2,2-trifluoro-ethylcarbamoyl)-methyl]-amide were administered in form of an oral solution, and the blood concentration of said aryl isoxazoline compound within the cats was then monitored according to the method as described in Example 1 up to 24 days following the administration.
2 cats (Group 1) received a full daily ration of commercial wet food 15 to 30 minutes before the administration of the aryl isoxazoline compound; The two Group 2 cats received an identical ration of wet food only 5 hours following the uptake of the aryl isoxazoline.

## Cc1cc(C2=NOC(c3cc(Cl)c(Cl)c(Cl)c3)(C(F)(F)F)C2)sc1C(=O)NCC(=O)NCC(F)(F)F (racemic) [5-[5-(3,4,5-trichloro-phenyl)-5-trifluoromethyl-4,5-dihydro-isoxazol-3-yl]-3-methyl-thiophene-2-carboxylic acid [(2,2,2-trifluoro-ethylcarbamoyl)-methyl]-amide]
[1]; Group 1 (fed 15 to 30 minutes before administration)
  Blood concentration of active ingredient, comparison of groups: highest blood concentration of active ingredient
[1]; Group 2 (fed 30 minutes after administration)
  Blood concentration of active ingredient, sufficiency for ectoparasite control: allowed effective ectoparasite control as well
[1]; Group 3 (fasted, fed 5 hours after)
  Blood concentration of the active enantiomer, sufficiency for ectoparasite control: never reached a level being sufficient for an effective ectoparasite control
[2]
  Level of active ingredient, sufficiency for ectoparasite control: never reached a level of active ingredient sufficient to provide an effective ectoparasite control
